Experimental data from PMC11054487, “Species-Specific Unbound Fraction Differences in Highly Bound PFAS: A Comparative Study across Human, Rat, and Mouse Plasma and Albumin” (Toxics, 2024).

Tests used:
[1] = target: mouse serum albumin (MSA) (Mus musculus, UniProt P07724); assay: Presaturation equilibrium dialysis, fraction unbound in mouse serum albumin solution; details: for fraction unbound at 18 h, 5 µM: mouse
Experimental: (§1) The equilibrium dialysis device (EQD) HTD96 (Gales Ferry, CT, USA) was assembled according to manufacturer instructions. DPBS buffer solutions were prepared by adding PFAS with a concentration of either approximately five-fold of the estimated fu values based on initial available data or assumed to be 0.001 if no data was available. The dialysis apparatus and membranes assembled were pre-saturated (250 µL) three times in total with PFAS spiked DPBS buffer solution; twice for 1 h followed by a final 18-h pre-saturation. This same solution was used on the receiver side of the EQD. […] This 4% albumin was used in the albumin binding study to recapitulate plasma concentration, as human albumin concentration in plasma is 3.5–4.5 g/dL (530–680 µM). The matrix was diluted five-fold using DPBS for PFAS that had preliminary fu values lower than 0.01. Dimethylsulfoxide (DMSO) stock solutions of test PFAS were prepared at 500 μM and added to species-specific plasma or 4% albumin to a final concentration of 5 μM with 1% DMSO. Next, 150 μL of PFAS spiked DPBS was added to the receiver side of the membrane and 150 μL of compound spiked matrix was added to the donor side. […] Each PFAS:matrix combination was assessed in quadruplicate. For sample collection, 15 μL of buffer and 45 μL of matrix were sampled from the dialysis device into a 96-deep well plate and matrix-matched with either blank buffer or matrix. The samples were then quenched with 200 μL of cold acetonitrile containing internal standard (tolbutamide 30 nM and carbamazepine 12 nM) to precipitate proteins. Next, the plates were sealed and placed on a vortex mixer for 1 min, and then centrifuged (Beckman Coulter, Fullerton, CA, USA) at 3000 rpm for 5 min at room temperature. Lastly, the supernatant was transferred to a new 96-well plate, fully dried down under nitrogen gas, reconstituted with 200 µL of 50/50 (v/v) HPLC grade water/acetonitrile, and vortexed for 1 min prior to LC-MS/MS analysis.
(§2) LC-MS/MS analyses were performed on a SCIEX Triple Quad 5500 mass spectrometer (SCIEX, Concord, ON, Canada) equipped with Turbo Ion Spray interface. […] All instruments were controlled and synchronized by SCIEX Analyst software (version 1.6.3). Mobile phases compositions were 0.1% formic acid in water (mobile phase A) and 0.1% formic acid in acetonitrile (mobile phase B). […] The column was equilibrated at 5% B for 0.5 min before injecting samples. The total run time for each injection was 6 min. The chromatographic separation was conducted on a Phenomenex Kinetex C18 100Å 30 × 2.1 mm column (Torrance, CA, USA) with a flow rate of 0.5 mL/min. The injection volume for each sample was 5 µL. Multiple-reaction-monitoring (MRM) mode using specific precursor/product ion transitions was used for quantification. Data processing was performed using SCIEX Analyst software (version 1.6.3).
(§3) The calculations for fu are shown in Equations (1) and (2), where D is the dilution factor and fu,d is the diluted fu shown below. All calculations are based on area ratios (analyte peak area/IS peak area), and MS responses used for calculations were all in linear ranges. […] (1) Diluted fud=Receiver Area Ratio/Donor Area Ratio (2) Undiluted fu=1/D/1/fu,d−1+1/D
(§4) Albumin concentrations for rodents have been reported in the literature as rat: 3.0 g/dL; CD-1 mice: 2.7 g/dL; C57BL/6 mice: 2.9 g/dL [53].

mouse (C57BL/6) plasma = assay: Presaturation equilibrium dialysis, fraction unbound in C57BL/6 mouse plasma; format: in vitro ADME; details: 5 μM PFAS, 18 h, 37 °C, value (CV)
Experimental: (§5) Each PFAS:matrix combination was assessed in quadruplicate.
(§6) The injection volume for each sample was 5 µL.

rat (Wistar-Han) plasma = assay: Presaturation equilibrium dialysis, fraction unbound in rat plasma; format: in vitro ADME; details: 5 μM PFAS, 18 h, 37 °C, value (CV)
Experimental: as §5, §6

[2] = target: T1, human serum albumin (HSA) (Homo sapiens, UniProt P02768); assay: Presaturation equilibrium dialysis, fraction unbound in human serum albumin solution; format: in vitro ADME; details: 4% human serum albumin in PBS, 5 μM PFAS, value (CV)
T1 construct: purchased Sigma-Aldrich
T1 sequence (P02768 25-609): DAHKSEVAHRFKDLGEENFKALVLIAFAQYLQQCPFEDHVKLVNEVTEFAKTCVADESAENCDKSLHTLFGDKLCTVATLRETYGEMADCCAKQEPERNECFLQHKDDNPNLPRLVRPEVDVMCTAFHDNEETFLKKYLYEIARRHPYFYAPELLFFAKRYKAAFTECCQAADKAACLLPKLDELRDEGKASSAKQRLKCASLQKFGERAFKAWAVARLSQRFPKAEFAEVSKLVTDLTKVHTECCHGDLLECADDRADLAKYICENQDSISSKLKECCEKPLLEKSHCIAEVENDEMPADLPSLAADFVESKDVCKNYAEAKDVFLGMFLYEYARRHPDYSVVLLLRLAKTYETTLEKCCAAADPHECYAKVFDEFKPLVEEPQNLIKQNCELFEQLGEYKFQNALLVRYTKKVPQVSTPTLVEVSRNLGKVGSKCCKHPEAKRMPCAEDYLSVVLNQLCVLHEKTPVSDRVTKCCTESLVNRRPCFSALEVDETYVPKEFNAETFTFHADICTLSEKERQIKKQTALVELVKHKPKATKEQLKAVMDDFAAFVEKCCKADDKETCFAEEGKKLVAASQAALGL
Experimental: as §5, §6

human plasma = assay: Presaturation equilibrium dialysis, fraction unbound in human plasma; format: in vitro ADME; details: 5 μM PFAS, 18 h, 37 °C, value (CV)
Experimental: as §5, §6

mouse (CD-1) plasma = assay: Presaturation equilibrium dialysis, fraction unbound in CD-1 mouse plasma; format: in vitro ADME; details: 5 μM PFAS, 18 h, 37 °C, value (CV)
Experimental: as §5, §6

rat serum albumin (RSA) = rat serum albumin (RSA) (Rattus norvegicus, UniProt P02770); assay: Presaturation equilibrium dialysis, fraction unbound in rat serum albumin solution; details: for fraction unbound at 18 h, 5 µM: rat
Chain of rat serum albumin (RSA) (P02770 25-608): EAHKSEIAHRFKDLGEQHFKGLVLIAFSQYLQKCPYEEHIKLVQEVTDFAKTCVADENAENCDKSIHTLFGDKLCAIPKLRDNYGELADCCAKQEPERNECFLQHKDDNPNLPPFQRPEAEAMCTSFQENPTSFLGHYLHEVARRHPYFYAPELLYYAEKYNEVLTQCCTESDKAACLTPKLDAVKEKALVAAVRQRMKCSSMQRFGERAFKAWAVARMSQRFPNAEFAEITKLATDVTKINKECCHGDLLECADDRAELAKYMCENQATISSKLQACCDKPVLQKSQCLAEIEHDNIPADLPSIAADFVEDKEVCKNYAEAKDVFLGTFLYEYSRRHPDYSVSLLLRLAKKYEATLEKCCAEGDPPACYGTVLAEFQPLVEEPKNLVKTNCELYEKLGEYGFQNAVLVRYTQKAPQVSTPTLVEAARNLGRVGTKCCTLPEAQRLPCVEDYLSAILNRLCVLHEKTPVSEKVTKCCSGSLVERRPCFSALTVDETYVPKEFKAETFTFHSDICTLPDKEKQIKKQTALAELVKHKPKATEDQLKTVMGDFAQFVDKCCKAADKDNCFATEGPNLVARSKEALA
Experimental: as §1, §2, §3, §4

[3] = humans; cited from earlier work
[4] = Presaturation equilibrium dialysis, fraction unbound in C57BL/6 mouse plasma; format: in vitro ADME; details: 5 μM PFAS, 37 °C, value (CV), read-out: Fraction Unbound (fu) and Coefficient of Variance (CV), C57BL/6 Plasma
Experimental: as §5, §6

[5] = Presaturation equilibrium dialysis, fraction unbound in rat plasma; format: in vitro ADME; details: Wistar-Han rat plasma, 5 μM PFAS, 37 °C, value (CV), read-out: Fraction Unbound (fu) and Coefficient of Variance (CV), Rat Plasma
Experimental: as §5, §6

[6] = Presaturation equilibrium dialysis, fraction unbound in human plasma; format: in vitro ADME; details: human, 5 μM PFAS, 37 °C, value (CV), read-out: Fraction Unbound (fu) and Coefficient of Variance (CV), Human Plasma
Experimental: as §5, §6

[7] = Presaturation equilibrium dialysis, fraction unbound in CD-1 mouse plasma; format: in vitro ADME; details: 5 μM PFAS, 37 °C, value (CV), read-out: Fraction Unbound (fu) and Coefficient of Variance (CV), CD-1 Plasma
Experimental: as §5, §6

[8] = 3% mouse serum albumin, value (%CV)
[9] = 4% mouse serum albumin in PBS, 5 μM PFAS, value (CV)
[10] = 3% rat serum albumin, value (%CV)
[11] = 4% rat serum albumin in PBS, 5 μM PFAS, value (CV)

Chain of mouse serum albumin (MSA) (P07724 25-608): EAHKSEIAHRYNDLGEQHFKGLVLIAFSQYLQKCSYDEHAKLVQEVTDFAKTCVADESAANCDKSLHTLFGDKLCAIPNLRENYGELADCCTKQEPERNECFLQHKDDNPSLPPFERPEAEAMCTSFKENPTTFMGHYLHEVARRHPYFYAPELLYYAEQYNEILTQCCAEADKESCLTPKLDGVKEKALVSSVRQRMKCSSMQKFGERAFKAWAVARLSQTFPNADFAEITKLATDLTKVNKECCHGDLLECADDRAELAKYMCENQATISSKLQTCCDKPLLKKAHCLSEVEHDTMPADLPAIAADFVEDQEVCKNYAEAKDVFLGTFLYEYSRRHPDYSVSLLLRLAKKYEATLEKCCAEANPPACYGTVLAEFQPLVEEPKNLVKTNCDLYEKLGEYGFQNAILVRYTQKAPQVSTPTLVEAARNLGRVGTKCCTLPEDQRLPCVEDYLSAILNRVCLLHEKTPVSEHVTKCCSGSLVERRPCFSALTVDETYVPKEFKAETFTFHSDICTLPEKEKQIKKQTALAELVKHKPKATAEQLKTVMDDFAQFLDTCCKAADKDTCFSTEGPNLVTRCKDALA

Row | SMILES | Fraction unbound (fu) and %CV, MSA 3% [1, 8] | Fraction Unbound (fu) and Coefficient of Variance (CV), MSA [1, 9] | Fraction Unbound (fu) and Coefficient of Variance (CV), C57BL/6 Plasma (mouse (C57BL/6) plasma) | Fraction Unbound (fu) and Coefficient of Variance (CV), Rat Plasma (rat (Wistar-Han) plasma) | Fraction Unbound (fu) and Coefficient of Variance (CV), HSA [2] | Fraction Unbound (fu) and Coefficient of Variance (CV), Human Plasma (human plasma) | Fraction Unbound (fu) and Coefficient of Variance (CV), CD-1 Plasma (mouse (CD-1) plasma) | Fraction unbound (fu) and %CV, RSA 3% (rat serum albumin (RSA); [10]) | Fraction Unbound (fu) and Coefficient of Variance (CV), RSA (rat serum albumin (RSA); [11]) | half-lives [3] | t1/2 [3] | fraction unbound at 18 h, 5 µM ([1]; 4% mouse serum albumin (MSA) solution, Fraction Unbound (fu) and Coefficient of Variance (CV), MSA, 4% mouse serum albumin in PBS, 5 μM PFAS, value (CV)) | fraction unbound at 18 h, 5 µM ([1]; isolated protein, Fraction unbound (fu) and %CV, MSA 3%, 3% mouse serum albumin, value (%CV)) | fraction unbound at 18 h, 5 µM [4] | fraction unbound at 18 h, 5 µM [5] | fraction unbound at 18 h, 5 µM ([2]; 4% human serum albumin (HSA) solution, read-out: Fraction Unbound (fu) and Coefficient of Variance (CV), HSA) | fraction unbound at 18 h, 5 µM [6] | fraction unbound at 18 h, 5 µM [7] | fraction unbound at 18 h, 5 µM (rat serum albumin (RSA); 4% rat serum albumin (RSA) solution, Fraction Unbound (fu) and Coefficient of Variance (CV), RSA, 4% rat serum albumin in PBS, 5 μM PFAS, value (CV)) | fraction unbound at 18 h, 5 µM (rat serum albumin (RSA); isolated protein, Fraction unbound (fu) and %CV, RSA 3%, 3% rat serum albumin, value (%CV))
1 | O=S(=O)(O)CCC(F)(F)C(F)(F)C(F)(F)C(F)(F)C(F)(F)C(F)(F)F [6:2 FtS, 6:2 fluorotelomer sulfonate] | 0.0091 (9%) | 0.0113(9%) | 0.0253(2%) | 0.0236(4%) | 0.00746(0%) | 0.0197(2%) | 0.0255(2%) | 0.00892 (4%) | 0.0111(4%) |  |  |  |  |  |  |  |  |  |  | 
2 | O=C(O)C(F)(F)C(F)(F)C(F)(F)F [PFBA, Perfluorobutanoic acid] | 0.206 (23%) | 0.24(22%) | 0.767(2%) | 0.37(24%) | 0.15(5%) |  | 0.757(6%) | 0.18 (3%) | 0.216(3%) | 3 days | 3.1 days |  |  |  |  |  |  |  |  | 
3 | O=S(=O)(O)C(F)(F)C(F)(F)C(F)(F)C(F)(F)F [PFBS, perfluorobutanesulfonic acid] | 0.0321 (11%) | 0.0396(11%) | 0.28(5%) | 0.0542(3%) | 0.056(5%) |  | 0.261(7%) | 0.0168 (8%) | 0.0208(8%) | 26 days | 26 days |  |  |  |  |  |  |  |  | 
4 | O=C(O)C(F)(F)C(F)(F)C(F)(F)C(F)(F)C(F)(F)C(F)(F)C(F)(F)C(F)(F)C(F)(F)C(F)(F)C(F)(F)F [PFDoDA, perfluorododecanoic acid] |  |  |  |  |  |  |  |  |  |  |  | 0.000217 | 0.000175 | 0.000205 | 7.96e-05 | 0.000157 | 0.000105 | 0.000222 | 9.64e-05 | 7.77e-05
5 | O=C(O)C(F)(F)C(F)(F)C(F)(F)C(F)(F)C(F)(F)F [PFHxA, perfluorohexanoic acid] | 0.0266 (11%) | 0.0329(11%) | 0.182(7%) | 0.0358(7%) | 0.0336(7%) | 0.038(6%) | 0.169(5%) | 0.0212 (4%) | 0.0264(4%) |  |  |  |  |  |  |  |  |  |  | 
6 | O=S(=O)(O)C(F)(F)C(F)(F)C(F)(F)C(F)(F)C(F)(F)C(F)(F)C(F)(F)C(F)(F)F [PFOS, perfluorooctanesulfonic acid] | 0.00102 (19%) | 0.00126(19%) | 0.00256(8%) | 0.00109(4%) | 0.000524(13%) |  |  | 0.000697 (25%) | 0.000852(25%) |  | 3.3–5.4 years |  |  |  |  |  |  |  |  | 
7 | O=C(O)C(F)(F)C(F)(F)C(F)(F)C(F)(F)F [PFPA, perfluoropentanoic acid] | 0.0809 (11%) | 0.0987(11%) | 0.577(5%) | 0.18(2%) | 0.0933(6%) | 0.0888(3%) | 0.609(4%) | 0.0769 (4%) | 0.0942(4%) |  |  |  |  |  |  |  |  |  |  | 
8 | O=C(O)C(F)(F)C(F)(F)C(F)(F)C(F)(F)C(F)(F)C(F)(F)C(F)(F)C(F)(F)C(F)(F)C(F)(F)F [PFUDA, perfluoroundecanoic acid] | 0.000417 (19%) | 0.000513(19%) |  | 0.000349(20%) | 0.000417(23%) | 0.000419(24%) | 0.000524(15%) | 0.000147 (28%) | 0.000178(28%) |  |  |  |  |  |  |  |  |  |  | 
